Data published in patent publication US10863753B2, “Iron-fortified tea preparations and methods of making same” (The Governing Council of the University of Toronto, priority 2015, dated 2020).
Values joined by “and” are separate entries in the source; they are usually repeats but may differ in a detail not shown here. Equal entries are not always repeated. Where two headings read alike, the source gives them in different places.

Experiments:
[1] = Iron-polyphenol complex formation in brewed tea (spectrophotometry / colour); format: physicochemical
Method: Iron polyphenol complex was measured using spectrophotometry. 2 L of tea were freshly prepared and brewed for 5 minutes. Tea leaves were removed and the liquid was distributed into 6 beakers (250 ml each). A stock solution of ferric EDTA was prepared and increasing volumes were added to each beaker. The maximum UV and Visible light absorbance wavelength for the tea was determined Absorbance at this maximum absorbance wavelength was measured after 5, 20 and 60 minutes. […]
Complex formation was determined using spectrophotometry. […] The maximum UV and visible light wavelength absorbance for the iron-tea polyphenol complex was determined. The maximum absorbance was 580 nm at tea pH and fortified teas were measured after 5, 20 and 60 minutes.

[2] = format: physicochemical; settings: for Precipitation in tea extract / Reduction of iron-polyphenol complex formation: tea extract 1 gGAE/L
Method: The tea extract was prepared using a solution of 50% by volume N,N-dimethylformamide (DMF) and 50% by volume reverse osmosis purified (RO) water with black tea leaves. […] Tea extract was diluted to the concentration of tea (1 gGAE/L) or to 1/10th of that concentration (0.1 gGAE/L) for use in these experiments and pH was controlled using hydrochloric acid and sodium hydroxide.
Iron complex formation was measured using spectrophotometry and analyzed by normalizing against ferrous sulfate in gallic acid (GA) at the phenolic concentration of tea. Therefore, 100% represents the peak absorbance of ferrous sulfate in a 1 g/L gallic acid solution at pH 5 or pH 7.

[3] = Complexation of iron in gallic acid solution (spectrophotometry); settings: for Reduction of iron polyphenol complex formation: gallic acid; for Iron gallic acid complex: 0.3 mM iron
Method: To approximate brewed tea, a concentration of 1 g/L and pH 5 were used. Binding of iron was also tested at pH 7 to approximate the pH of the small intestine. Hydrochloric acid and sodium hydroxide were used to adjust and maintain the pH. […] Since the iron-gallate complex is coloured, spectrophotometry was used to quantify the complex formation.

[4] = In vitro bioaccessibility, simulated pepsin and pancreatin/bile digestion (Example 3); format: in vitro ADME; settings: in tea, no EDTA protection
[5] = tested on: Caco-2 cells; assay: Caco-2 cell transport, bioavailable fraction in basolateral chamber (Example 3)
Method: The digested liquid was diluted to half with buffer in order to ensure cells survival during the experiment, and the basolateral camera was filled with 2 ml of buffer. […] The liquid from the basolateral camera was collected and sent for iron analysis using AAS.

[6] = iron source added to tea without EDTA protection
[7] = iron source with EDTA protection, molar ratio 1:2
[8] = target pH 5, tea extract 0.1 gGAE/L, 0.3 mM iron
[9] = target pH 7, tea extract 0.1 gGAE/L, 0.3 mM iron

Row | SMILES | Iron-polyphenol complex formation (colour) [1, 6] | Iron-polyphenol complex formation (colour) [1, 7] | Iron Complex (% FS in 1 g/L GA) [2, 8] | Iron Complex (% FS in 1 g/L GA) ([2]; target pH 5, tea extract 0.1 gGAE/L, 0.3 mM iron, listed as Ferric sodium EDTA) | Iron Complex (% FS in 1 g/L GA) ([2]; target pH 5, tea extract 1 gGAE/L, 0.3 mM iron) | Iron Complex (% FS in 1 g/L GA) [2, 9] | Iron Complex (% FS in 1 g/L GA) ([2]; target pH 7, tea extract 0.1 gGAE/L, 0.3 mM iron, listed as Ferric sodium EDTA) | Iron Complex (% FS in 1 g/L GA) ([2]; target pH 7, tea extract 1 gGAE/L, 0.3 mM iron) | Precipitation in tea extract [2] | Reduction of iron-polyphenol complex formation ([2]; pH 5) | Reduction of iron-polyphenol complex formation ([2]; pH 7) | Reduction of iron polyphenol complex formation ([3]; pH 5) | Reduction of iron polyphenol complex formation ([3]; pH 7) | Iron gallic acid complex ([3]; target pH 5, 1 g/L gallic acid) | Iron gallic acid complex ([3]; target pH 7, 1 g/L gallic acid) | Bioaccessibility of iron [4] | Iron Complex (% FS in 1 g/L GA) ([2]; pH 5) | Iron Complex (% FS in 1 g/L GA) ([2]; pH 7) | Increased bioavailability with an excess of EDTA versus no protection ([5]; in fortified tea) | Bioavailability of iron ([5]; in tea, added without EDTA protection)
1 | O=C([O-])CN(CCN(CC(=O)[O-])CC(=O)[O-])CC(=O)[O-].[Fe+3].[Na+] [FeNaEDTA, ferric sodium EDTA] | complex was formed | effective in avoiding complex formation | 3.0 ± 0.2 % FS in 1 g/L GA | 3 % FS in 1 g/L GA | 4 ± 6 % FS in 1 g/L GA | 3.0 ± 0.7 % FS in 1 g/L GA | 3 % FS in 1 g/L GA | 70 ± 8 % FS in 1 g/L GA | not cause precipitation | 96% | 30% | 94%±3% | 93%±2% | 6.2 ± 0.2% | 7.0 ± 0.5% |  |  |  |  | 
2 | O=S(=O)([O-])[O-].[Fe+2] [ferrous sulphate] | iron-polyphenol complex was formed instantaneously | effective in avoiding complex formation |  |  |  |  |  |  |  |  |  |  |  | 100 ± 3.0% | 100 ± 2.0% | lowest bioaccessibility | 72 ± 2 % FS in 1 g/L GA | 85 ± 1 % FS in 1 g/L GA |  | 
3 | O=C([O-])/C=C/C(=O)[O-].[Fe+2] [ferrous fumarate] | iron-polyphenol complex was formed instantaneously | effective in avoiding complex formation | 65 ± 2 % FS in 1 g/L GA |  |  | 66 ± 3 % FS in 1 g/L GA |  |  | precipitation occurs |  |  |  |  | 103 ± 3.0% | 110 ± 2.0% |  |  |  | 4 fold | 16% and 12%
